What was measured:
human PPARα = target: T1, human PPARα (Homo sapiens, UniProt Q07869); assay: PPARα competition binding assay
T1 sequence (Q07869 1-468): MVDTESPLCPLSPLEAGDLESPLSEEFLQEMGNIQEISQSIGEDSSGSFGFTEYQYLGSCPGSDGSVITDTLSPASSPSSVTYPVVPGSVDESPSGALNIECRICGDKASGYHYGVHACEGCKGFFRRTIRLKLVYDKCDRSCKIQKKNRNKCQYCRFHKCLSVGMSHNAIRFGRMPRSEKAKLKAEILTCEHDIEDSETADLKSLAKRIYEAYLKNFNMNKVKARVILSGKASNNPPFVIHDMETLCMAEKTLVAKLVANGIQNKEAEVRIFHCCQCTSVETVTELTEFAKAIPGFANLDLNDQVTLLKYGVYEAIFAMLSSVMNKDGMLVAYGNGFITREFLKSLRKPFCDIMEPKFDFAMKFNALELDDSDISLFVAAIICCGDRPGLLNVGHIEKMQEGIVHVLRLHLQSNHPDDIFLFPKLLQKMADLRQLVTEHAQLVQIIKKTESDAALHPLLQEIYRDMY
Source text: The term ligand throughout this application should be understood to include an agonist, partial agonist or antagonist of LXR. The ligand may be selective for LXRα or LXRβ, or it may have mixed binding affinity for both LXRα and LXRβ. Particularly, compounds within the scope of this invention include those which have greater selectivity as determined by binding affinity for LXRα and/or LXRβ receptors than they have for each of the PPARα, γ and δ receptors.

human GST-LXRα receptor = target: T2, human GST-LXRα receptor (Homo sapiens, UniProt Q13133); assay: Radioligand competition binding scintillation proximity assay, LXRα
T2 construct: made in house; host or cells: E. coli (pGEX-KT vector)
T2 sequence (Q13133 164-447): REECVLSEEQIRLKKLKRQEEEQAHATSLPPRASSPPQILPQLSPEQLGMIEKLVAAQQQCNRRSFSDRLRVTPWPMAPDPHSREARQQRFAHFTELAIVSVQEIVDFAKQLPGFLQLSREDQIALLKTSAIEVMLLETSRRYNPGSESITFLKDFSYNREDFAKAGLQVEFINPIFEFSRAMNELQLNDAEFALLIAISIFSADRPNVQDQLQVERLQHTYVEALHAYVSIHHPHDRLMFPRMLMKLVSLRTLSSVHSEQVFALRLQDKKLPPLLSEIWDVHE
Source text: Radioligand Competition Binding Scintillation Proximity Assays:
Preparation of Recombinant Human LXRα and LXRβ:
Human LXRα and LXRβ were expressed as GST-fusion proteins in E. coli. The ligand binding domain cDNAs for human LXRα (amino acids 164-447) and human LXRβ (amino acids 149-455) were subcloned into the pGEX-KT expression vector (Pharmacia). E. coli containing the respective plasmids were propagated, induced, and harvested by centrifugation. The resuspended pellet was broken in a French press and debris was removed by centrifugation. Recombinant human LXR receptors were purified by affinity chromatography on glutathione sepharose and receptor was eluted with glutathione. Glycerol was added to a final concentration of 50% to stabilize the receptor and aliquots were stored at −80° C.
After incubation for ˜16 h at 15° C. with shaking, the assay plates were counted in a Packard Topcount.

ABC1 mRNA = assay: Induction of ABC1 mRNA levels in THP-1 macrophages; format: cell-based; settings: Homo sapiens, ABC-1, 0.10 μM, 6 hours, vs DMSO control, read-out: Fold Induction of ABC1 mRNA (Mean ± SEM)
Experimental: Induction of ABC1 mRNA levels
Cultured human THP-1 cells were used. All cell culture incubations were performed at 37° C. under 95% air/5% carbon dioxide. Cells were grown in Complete RPMI medium plus 10% FCS (Fetal Calf Serum). Complete RPMI medium is defined as RPMI medium (Sigma Cat.# R8005) containing […], 1 mM Na Pyruvate, 2 mM L-Glutamine, and Antibiotic-Antimyotic Solution (Sigma Cat.# A9909: 100U/ml Penicillin, 0.1 mg/ml Streptomycin, 0.251l/ml Amphotericin B). Cells were differentiated into macrophages by incubation in Complete RPMI medium plus 10% FCS (Fetal Calf Serum) plus 100 nM tetradecanoyl phorbol acetate for three days. After differentiation, the THP-1 macrophages were incubated in Complete RPMI medium plus 10% FCS (Fetal Calf Serum) with the test LXR agonist. After 6 hours at 37° C., the cells were harvested and total RNA prepared using the phenol/guanidine isothiocyanate method as supplied and described by Molecular Research Center, Inc. (TRI REAGENTφ Cat. No. TR 118). ABC1 mRNA levels in the total RNA were measured using the TaqMan® mRNA quantitation system, following protocols published by the manufacturer (Perkin-Elmer). The oligonucleotide PCR primers used to detect ABC1 were:
The oligonucleotide probe used was:
ABC1 mRNA levels in each sample were normalized to the mRNA levels for the 23 kDa highly basic protein. […]

THP-1 macrophages = assay: Stimulation of cholesterol efflux from cultured THP-1 macrophages; format: cell-based, human; settings: 24 hours, 10 μg/ml apoA-I acceptor, mean±SEM, DMSO control 9.9 ± 0.5
Source text: Stimulation of Cholesterol Efflux from Cultured Cells
Patients with Tangier disease have mutations in the ABC1 gene and have very low HDL levels. Cultured cells from these patients are defective in cholesterol efflux (Francis et al. (1995) J. Clin. Invest. 96:78-87). Therefore, induction of ABC1 mRNA should lead to increased cholesterol efflux and increased HDL levels (Francis et al. (1999) Clinica Chimica Acta 286:219-230). TIIP-1 cells were used to determine whether induction of ABC1 mRNA by Compound 1 would increase cholesterol efflux. Specifically, cultured human THP-1 cells were stimulated to differentiate into macrophages by incubation with 100 nM tetradecanoyl phorbol acetate for three days, as described above. After differentiation, the TUP-1 macrophages were labeled with ^3H-cholesterol by incubation for 24 hours with 10 μCi/ml ^3H-cholesterol in Complete RPMI media containing 0.1% lipid-free bovine serum albumin (BSA) plus 100 nM tetradecanoyl phorbol acetate. After labeling, the cells were incubated for 24 hours in Complete RPMI media with 0.1% lipid-free bovine serum albumin (BSA) to allow for equilibration of cellular cholesterol pools. Cholesterol efflux was then measured over the following 24 hours by incubating the cells in Complete RPMI media containing 10 μg/ml of apoA-I as cholesterol acceptor, and either Compound 1 or DMSO as control.

IC50 (human PPARα): > 10000 nM
IC50 (human GST-LXRα receptor): 80 nM
Ki (human GST-LXRα receptor; read-out: LXRα calculated Ki): ~30 nM
SMILES: CC(=O)Oc1ccc2c(c1)[C@@]1(C)CCC[C@](C)(C(=O)OC(=O)[C@@]3(C)CCC[C@]4(C)c5cc(OC(C)=O)ccc5CC[C@@H]34)[C@@H]1CC2 [Compound 1]
fold induction at 0.1 µM (ABC1 mRNA): 6.9 ± 0.6
Cholesterol efflux (% of cell contents) (THP-1 macrophages; 0.02 μM): 14.6 ± 0.5 % of cell contents
Cholesterol efflux (% of cell contents) (THP-1 macrophages; 2.5 μM): 17.1 ± 0.6 % of cell contents

Reference: patent US20030086923A1, “Method for the prevention and/or treatment of atherosclerosis” (priority 1999, published 2003)
